# Data from patent publication US12472269B2, “Liver-specific inducible promoters and methods of use thereof” (ASKBIO INC., priority 2019, dated 2025).
# B1: CMV-IE: strong viral CMV-IE comparative promoter, SEQ ID NO: 52 (nucleic acid)
# DNA: GACATTGATTATTGACTAGTTATTAATAGTAATCAATTACGGGGTCATTAGTTCATAGCCCATATATGGAGTTCCGCGTTACATAACTTACGGTAAATGGCCCGCCTGGCTGACCGCCCAACGACCCCCGCCCATTGACGTCAATAATGACGTATGTTCCCATAGTAACGCCAATAGGGACTTTCCATTGACGTCAATGGGTGGAGTATTTACGGTAAACTGCCCACTTGGCAGTACATCAAGTGTATCATATGCCAAGTACGCCCCCTATTGACGTCAATGACGGTAAATGGCCCGCCTGGCATTATGCCCAGTACATGACCTTATGGGACTTTCCTACTTGGCAGTACATCTACGTATTAGTCATCGCTATTACCATGGTGATGCGGTTTTGGCAGTACATCAATGGGCGTGGATAGCGGTTTGACTCACGGGGATTTCCAAGTCTCCACCCCATTGACGTCAATGGGAGTTTGTTTTGGCACCAAAATCAACGGGACTTTCCAAAATGTCGTAACAACTCCGCCCCATTGACGCAAATGGGCGGTAGGCGTGTACGGTGGGAGGTCTATATAAGCAGAGCT
# modifications: CMV-IE comparative promoter
# Tests used:
# Huh7 cells = assay: EPO expression (ELISA of medium) from PB1-MinTK in Huh7 cells with CAR-containing plasmid, induction by CITCO; assay type: cell-based, human
# From the text: • Huh7 cells which are a human liver cell line • DPBS: without CaCl2, without MgCl2 (Gibco, 14190-094) • DMEM (Sigma, D6546) • FBS (Sigma, F9665) • Pen-Strep (Sigma, P4333) • Promega Fugene-HD (E2311) • TCPOBOP (Sigma, T2320) • CITCO (Cayman Chemicals Company, 16027) • pcDNA6 plasmid which contains the β-galactosidase gene used as internal control for transfection efficiency (Thermofisher, V22020) • mouse CAR expression plasmid from Jouan et al, 2016 (BioCat GmbH, EX-Z4288-M51-10-GC). This was used as Huh7 is CAR deficient. • β-galactosidase substrate solution (Thermofisher, 75707/75710) • Pierce BCA kit (23225) • LARII (Dual Luciferase Reporter 1000 assay system, Promega, E1980) • EPO ELISA kit (Abcam, ab119522) Method: Day 1 • Cells were seeded onto a 48 well plate at a density of 25,000 cells/300 μl Day 2 • On the day of transfection, DNA to be transfected (CAR plasmid/PB1-MinTK operably linked with luciferase or EPO/pcDNA6 plasmid for internal control) was diluted to a 100 ng/μl stock solution. Per 48 Well Transfection: • 45 ng of DNA (15 ng of each plasmid, pcDNA6, CAR and test plasmid) was mixed with 4.1 μl of Optimem medium. • 0.5 μl of Fusion HD was mixed with 4 μl of Optimem medium. • These 2 solutions were mixed and incubated at room temperature for 15 minutes. • The final solution was then added to the well drop wise. • 3 hrs after transfection, the inducer TCPOBOP was added to the appropriate wells at the indicated concentration. Day 3 • 24 hrs after induction the media was removed from the cells. • The cells were washed once in 300 μl of DPBS • Cells were lysed using 100 μl of passive lysis buffer and incubation with rocking for 15 minutes • The cell debris was pelleted by centrifugation of the plate at max speed in a benchtop centrifuge for 1 min • For luciferase, 10 μl sample was transferred into white 96-well plate and luminescence measured by injection of 50 μl of LARII substrate. • β-galactosidase activity was measured as per manufacturer's instructions (Mammalian β-Galactosidase Assay Kit, 75707/75710, Thermo Scientific) using 25 μl of lysate. 25 μl of lysate was transferred into a microplate well and mixed with 25 μl of β-galactosidase Assay Reagent, equilibrated to room temperature. The mixture was incubated at 37° C. for 30 min and absorbance measured at 405 nm. • Protein concentration was measured as per manufacturer's instructions (Pierce™ BCA Protein Assay Kit, 23225/23227, Thermo Scientific) using 25 μl of lysate. 25 μl of lysate was transferred into a microplate well and mixed with 200 μl of working solution. The mixture was incubated at 37° C. for 30 min, cooled to room temperature and then absorbance measured around 562 nm. The protein concentration was calculated with respect to protein standard curve prepared from assaying standards with known protein concentration.
# Transfections with PB1-MinTk-EPO were performed as described above with the exception that EPO is secreted into the medium. Therefore, medium was collected, and EPO concentration measured as per manufacturer's instructions (ab119522 Erythropoietin (EPO) Human ELISA Kit, Abcam) using an ELISA assay. 50 μl of medium was transferred to a pre-washed microplate wells and mixed with 50 μl of 1× Biotin Conjugated Antibody. The mixture was incubated at room temperature for 1 hour. The wells were washed, 100 μl of Streptavadin-HRP was added and the plate was incubated at room temperature for 15 minutes. The wells were washed and then 100 μl of TMB Substrate Solution. The mixture was incubated at room temperature for 10 minutes. The enzyme reaction was stopped by addition of 100 μl of Stop Solution and absorbance was read at 450 nm. The EPO concentration was calculated with respect to EPO standard curve prepared from assaying standards with known EPO concentration.
# The PB1-MinkTK promoter was then used to drive expression of the protein EPO, which is of therapeutic interest. […]
# CD1 male mice = assay: In vivo bioluminescence imaging of mice injected with AAV9 constructs, induction by phenobarbital; settings: AAV9 via tail vein
# Experimental: • Seed HEK 293-AAV cells in 15 cm plates. To be 70-80% confluent on the day of transfection • Final volume on each plate: 15 ml Day 2: Prepare Transfection Mix: • DNA mix/plate: pDG9 (Packaging plasmid for AAV9): 10.5 μg/pHGTI (Ad. Helper plasmid): 31.5 μg/Vector plasmid: 10.5 μg/Prepare in serum free DMEM/Optimem • Transfer mix/plate: PEI: 125 μl/Prepare in serum free DMEM/Optimem • Add DNA mix into transfection mix. Mix and leave at room temperature for 15-20 mins. • Add 3 ml of transfection mix to each plate drop-wise and gently distribute. Incubate for 24 h. Day 3: • Replace media with 15 ml DMEM supplemented with P/S and 2% FCS. Leave for 48 h. Day 5: • Collect supernatant and pool in 50 ml tubes, 25 ml each tube. Store at −20° C. • Collect cells: Add 5 ml of PBS to each plate→scrape and collect in 50 ml tubes. • To wash plates, add another 1 ml of PBS and collect. • Spin at 1500 rpm for 5 mins. • Remove supernatant and resuspend pelleted cells in 1 ml/plate TD lysis buffer→pool • Store at −80′C. Endonuclease Treatment Cells: • Freeze and thaw pellets 5 times→˜20 mins at 37° C. then ˜20 mins in dry ice (or −80° C.). • Add 25 μl/ml cells of 20% Deoxycholate (or 50 μl/ml of 10% Deoxycholate). • Add 8 μl/ml cells of benzonase. • Incubate at 37° C. for 30 mins. • Spin at 4 Krpm for 30 mins. • Filter supernatant using […] filters. • Store at 4° C. for up to 24 h. Supernatant: • Add 2.5 μl/25 ml supernatant of benzonase. • Add 50 μl/25 ml supernatant of MgSO4. • Incubate at 37° C. for 30 mins. • Spin at 4 Krpm for 30 mins. • Filter supernatant using […] filters. • Store at 4′C for up to 24 h. Hplc Purification • Place both lines in 20% ETOH→template→system wash • Put line A in PBS and line B in Glycine→template→system wash • Place the column in the machine→manual run→flowrate: 5 ml/min→Run for 25 ml or until the UV line is flat. • Prepare FACS tubes (10 for cells and more for supernatant): add 30 μl/tube Tris→put in the machine to collect vectors. • Place the waste lines in a separate tube to be able to run them again through the column. • Run samples (flowrate low, depending on how fast the system and how concentrated the sample is; for cells it is slower, for supernatant it is higher). • After running the waste through the column, wash with PBS→flowrate: 5 ml/min until the UV line is flat. • Set→fraction size: 1 ml; Flowrate: 1 ml/min; concentration % B: 100%→run. • Start collecting: Look for the peak. The peak indicates vector purification. Mark the tubes containing these vectors. • Save programme before exiting. • Wash with PBS→75 ml, 5 ml/min • Wash with Na3PO4 (to store the column in)→75 ml, 5 ml/min • Remove column and store at 4° C. • Wash the machine with PBS→template→system wash • Wash the machine with 20% ETOH→template→system wash • Put both lines in 20% ETOH and shut down • Add 2 L of PBS into a big bucket and put the Dialysis cassette (Side-A-Lyzer; Thermo scientific) to prime. • Collect the vectors from the marked FACS tubes using a syringe and needle and add into the dialysis cassette→remove excess air from the membrane, carefully place the rubber on top of the cassette and let it float in the PBS-containing bucket→leave over night at room temperature on a slow rotating rotor. Next Day: • Prime membrane by adding 5 ml PBS onto a centrifugal filter (Amico Ultra 15; MERCK)→spin for 5 mins at 4 Krpm • Remove excess PBS from inside the membrane. • Take vectors out from the cassette and load onto the membrane→spin for 5 mins at 4 Krpm • Wash the membrane with the vectors inside few times, then collect into 2 ml centrifuge tube filter 0.22 μM (Spin-X; COSTAR) • Spin for 3 mins at 13 Krpm. • Remove filter and aliquot: 1×100 μl (for injection), the rest in 10-2 μl aliquots. • Store in −80° C. • Virus quantification was performed using qRT-PCR with primers and probes for the luciferase gene. Mice Experiment […]
# AXOL ARE-hepatocytes = assay: Luciferase expression from PBREM promoters in AXOL ARE-hepatocytes, induction by CITCO; assay type: cell-based, human; settings: 1 μM CITCO, readout 24 hrs after induction
# From the text: Axol Assay-Ready Expanded (ARE) Hepatocytes are primary human hepatocytes that have been expanded in vitro. Large batch sizes (up to 2000 vials) are available, ensuring a reliable, ready-to-use and consistent source of primary hepatocytes. ARE Hepatocytes express CYP enzymes, are metabolically functional, are polarized and can be infected by the Hepatitis C virus. AXOL ARE-hepatocytes express CAR negating the need to transfect with a CAR-expressing plasmid.
# • AXOL assay-ready expanded (ARE) hepatocytes (Axol, ax3701) • ARE hepatocyte thawing medium (Axol, ax3705) • ARE maintenance medium (Axol, ax3710) • Virimer red transfection reagent (Lipocalyx, VR04-02-15) • CITCO, lucifierase, β-galactosidase and BCA kits as described above
# ARE hepatocytes were cultured and transfected as described in the manufacturer's manual. 200,000 cells were seeded in 2 ml culture medium in collagen-coated 6 well plate. The cells were incubated for 4 h at 37° C. and 5% CO2 for sufficient adhesion. 200 μl of transfection mixture containing the DNA to be transfected (PB1-MinTK/PB1-CMV/PB1-SV40 operably linked with luciferase and β-galactosidase containing promoter) was added and the cells were incubated on an orbital shaker at 100 rpm for three hours at 37° C. and 5% CO2. 3 hrs after transfection CITCO was added to the appropriate wells. Cells were incubated under static conditions at 37° C. and 5% CO2 overnight and in the morning the medium was replaced with fresh ARE Hepatocyte Maintenance Medium. Readout was 24 hrs after induction. […]
molecule,measurement,setting,value
"Clc1ccc(-c2nc3sccn3c2C=NOCc2ccc(Cl)c(Cl)c2)cc1 [CITCO, 6-(4Chlorophenyl)imidazo[2,1-b][1,3]thiazole-5-carbaldehyde-O-(3,4-dichlorobenzyl)oxime, reference compound]",strength as inducer of CAR activity,Huh7 cells; 22% vs 40% of CMV-IE with PB1-MinTK,weaker inducer of CAR activity than TCPOBOP
"CMV-MP: CMV minimal promoter driving EPO in pGL4.10, SEQ ID NO: 54 [reference compound]",change of EPO expression on addition of CITCO,"Huh7 cells; 0.5 μM, 1 μM, 2 μM and 3 μM CITCO",does not change the EPO expression
B1,tissue distribution of luciferase expression,CD1 male mice,expressing in almost all tissues of the mouse
same,induction of luciferase expression,AXOL ARE-hepatocytes,~2 fold
